Laboratory results published in the supplement of paper PMC10307832.

Tests used:
Assay in all cases: relative viability (nuclei count vs DMSO), 5 days (fraction); higher = more cells survive
GSK126 + Pictilisib = compound: CC[C@H](C)N1C=C(C2=C(C=C(C=C21)C3=CN=C(C=C3)N4CCNCC4)C(=O)NCC5=C(C=C(NC5=O)C)C)C [GSK126] + CS(=O)(=O)N1CCN(Cc2cc3nc(-c4cccc5[nH]ncc45)nc(N4CCOCC4)c3s2)CC1 [Pictilisib] (partner 1 µM)
Outline: (§1)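 Relative viability equals treated-well nuclei counts divided by vehicle-well nuclei counts. Counts came from 4× images of lung cancer cell lines grown in 1536-well plates for 5 days after pin-tool dosing on the day after seeding. Dosing used one drug alone or a fixed anchor-drug dose plus five library-drug doses (not always all listed) in √10 steps, and values are medians of duplicate plates.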

MLN4924 + Pictilisib = compound: NS(=O)(=O)OC[C@@H]1C[C@@H](n2ccc3c(N[C@H]4CCc5ccccc54)ncnc32)C[C@@H]1O [MLN4924] + CS(=O)(=O)N1CCN(Cc2cc3nc(-c4cccc5[nH]ncc45)nc(N4CCOCC4)c3s2)CC1 [Pictilisib] (partner 1 µM)
Outline: as §1

Carboplatin + Decitabine = compound: C1CC(C1)(C(=O)O)C(=O)O.[NH2-].[NH2-].[Pt+2] [Carboplatin] + Nc1ncn([C@H]2C[C@H](O)[C@@H](CO)O2)c(=O)n1 [Decitabine] (partner 2 µM)
Outline: as §1

Carboplatin + Pictilisib = compound: C1CC(C1)(C(=O)O)C(=O)O.[NH2-].[NH2-].[Pt+2] [Carboplatin] + CS(=O)(=O)N1CCN(Cc2cc3nc(-c4cccc5[nH]ncc45)nc(N4CCOCC4)c3s2)CC1 [Pictilisib] (partner 1 µM)
Outline: as §1

Cell Line	relative viability (GSK126 + Pictilisib; first compound 0.08 µM)	relative viability (GSK126 + Pictilisib; first compound 0.253 µM)	relative viability (GSK126 + Pictilisib; first compound 0.8 µM)	relative viability (GSK126 + Pictilisib; first compound 2.53 µM)	relative viability (GSK126 + Pictilisib; first compound 8 µM)	relative viability (MLN4924 + Pictilisib; first compound 0.04 µM)	relative viability (MLN4924 + Pictilisib; first compound 0.1265 µM)	relative viability (MLN4924 + Pictilisib; first compound 0.4 µM)	relative viability (MLN4924 + Pictilisib; first compound 1.265 µM)	relative viability (MLN4924 + Pictilisib; first compound 4 µM)	relative viability (Carboplatin + Decitabine; first compound 0.08 µM)	relative viability (Carboplatin + Decitabine; first compound 0.253 µM)	relative viability (Carboplatin + Decitabine; first compound 0.8 µM)	relative viability (Carboplatin + Decitabine; first compound 2.53 µM)	relative viability (Carboplatin + Decitabine; first compound 8 µM)	relative viability (Carboplatin + Pictilisib; first compound 0.08 µM)	relative viability (Carboplatin + Pictilisib; first compound 0.253 µM)	relative viability (Carboplatin + Pictilisib; first compound 0.8 µM)	relative viability (Carboplatin + Pictilisib; first compound 2.53 µM)	relative viability (Carboplatin + Pictilisib; first compound 8 µM)
NCI-H1793	0.224	0.37	0.36	0.502	0.343	0.322	0.284	0.273	0.245	0.121	0.464	0.538	0.503	0.452	0.357	0.396	0.345	0.316	0.382	0.329
HCC-44	0.643	0.534	0.894	0.61	0.591	0.641	0.474	0.0983	0.0904	0.127	0.968	0.915	0.949	0.923	0.863	0.577	0.552	0.666	0.554	0.592
NCI-H3122	0.61	0.597	0.595	0.684	0.703	0.591	0.376	0.222	0.153	0.136	0.49	0.433	0.437	0.397	0.436	0.62	0.659	0.549	0.593	0.563
COR-L23	0.946	0.735	0.817	0.839	0.768	0.711	0.71	0.159	0.104	0.0964	0.402	0.514	0.412	0.361	0.21	0.933	0.782	0.735	0.512	0.253
201T	0.686	0.8	0.738	0.691	0.728	0.783	0.837	0.833	0.425	0.366	0.869	0.822	0.865	0.791	0.76	0.69	0.667	0.736	0.684	0.634
NCI-H23	0.535	0.568	0.418	0.466	0.512	0.249	0.288	0.183	0.0988	0.141	0.377	0.266	0.298	0.291	0.276	0.477	0.483	0.481	0.472	0.391
LCLC-103H	0.712	0.555	0.683	0.626	0.658	0.757	0.697	0.788	0.238	0.233	0.801	0.735	0.747	0.719	0.735	0.65	0.597	0.613	0.646	0.611
NCI-H2087	1.08	0.745	0.815	0.894	0.844	0.972	0.75	0.342	0.118	0.133	0.242	0.28	0.307	0.227	0.237	0.968	0.868	0.859	0.826	0.504
NCI-H1944	0.356	0.349	0.367	0.36	0.391	0.405	0.38	0.376	0.182	0.178	0.456	0.456	0.437	0.417	0.363	0.338	0.321	0.336	0.327	0.342
HARA	0.394	0.421	0.48	0.411	0.37	0.552	0.388	0.184	0.0759	0.0734	0.681	0.439	0.549	0.448	0.469	0.424	0.341	0.387	0.382	0.391
NCI-H2347	0.602	0.661	0.567	0.511	0.616	0.841	0.895	0.387	0.324	0.369	0.615	0.428	0.621	0.653	0.552	0.65	0.516	0.623	0.708	0.74
COR-L 105	0.435	0.406	0.347	0.389	0.459	0.427	0.455	0.399	0.268	0.274	0.648	0.611	0.687	0.515	0.398	0.403	0.391	0.422	0.427	0.34
A-427	0.855	0.786	0.701	0.799	0.641	0.66	0.406	0.284	0.179	0.222	0.593	0.562	0.571	0.527	0.512	0.773	0.768	0.629	0.694	0.732
HCC-15	0.767	0.709	0.698	0.673	0.676	0.475	0.343	0.172	0.0896	0.107	0.657	0.627	0.588	0.587	0.452	0.781	0.715	0.749	0.702	0.498
NCI-H2342	–	–	–	–	–	–	–	–	–	–	0.675	0.729	0.661	0.721	0.594	–	–	–	–	–
NCI-H2023	0.26	0.253	0.247	0.306	0.256	0.315	0.145	0.101	0.0651	0.0705	0.238	0.224	0.185	0.141	0.129	0.262	0.27	0.261	0.192	0.171
ABC-1	0.972	1.03	0.732	0.858	0.687	0.677	0.809	0.372	0.188	0.374	1.02	1.12	1.01	0.931	0.52	0.749	0.783	0.782	0.68	0.535
LC-2-ad	0.506	0.687	0.647	0.522	0.567	0.122	0.427	0.39	0.143	0.116	0.753	0.93	0.708	0.776	0.64	0.669	0.477	0.436	0.447	0.399

Cell Line	relative viability (GSK126 + Pictilisib; first compound 0.08 µM)	relative viability (GSK126 + Pictilisib; first compound 0.253 µM)	relative viability (GSK126 + Pictilisib; first compound 0.8 µM)	relative viability (GSK126 + Pictilisib; first compound 2.53 µM)	relative viability (GSK126 + Pictilisib; first compound 8 µM)	relative viability (MLN4924 + Pictilisib; first compound 0.04 µM)	relative viability (MLN4924 + Pictilisib; first compound 0.1265 µM)	relative viability (MLN4924 + Pictilisib; first compound 0.4 µM)	relative viability (MLN4924 + Pictilisib; first compound 1.265 µM)	relative viability (MLN4924 + Pictilisib; first compound 4 µM)	relative viability (Carboplatin + Decitabine; first compound 0.08 µM)	relative viability (Carboplatin + Decitabine; first compound 0.253 µM)	relative viability (Carboplatin + Decitabine; first compound 0.8 µM)	relative viability (Carboplatin + Decitabine; first compound 2.53 µM)	relative viability (Carboplatin + Decitabine; first compound 8 µM)	relative viability (Carboplatin + Pictilisib; first compound 0.08 µM)	relative viability (Carboplatin + Pictilisib; first compound 0.253 µM)	relative viability (Carboplatin + Pictilisib; first compound 0.8 µM)	relative viability (Carboplatin + Pictilisib; first compound 2.53 µM)	relative viability (Carboplatin + Pictilisib; first compound 8 µM)
NCI-H460	0.371	0.391	0.335	0.361	0.338	0.506	0.729	0.618	0.191	0.0906	0.461	0.476	0.481	0.298	0.149	0.379	0.356	0.352	0.321	0.213
NCI-H1915	0.937	0.874	1.04	0.941	0.927	0.773	0.81	0.59	0.215	0.201	0.264	0.258	0.249	0.23	0.258	0.938	0.929	0.919	0.85	0.588
NCI-H1299	0.877	0.693	0.74	1.02	0.576	0.378	0.398	0.153	0.0571	0.0769	–	–	–	–	–	0.785	0.663	0.62	0.739	0.617
HOP-62	0.894	0.758	0.64	0.86	0.785	0.521	0.428	0.0949	0.0537	0.103	0.234	0.223	0.243	0.195	0.214	0.527	0.747	0.663	0.64	0.65
EPLC-272H	0.35	0.337	0.26	0.329	0.3	0.119	0.246	0.0811	0.135	0.135	0.402	0.403	0.361	0.366	0.355	0.373	0.305	0.313	0.322	0.349
NCI-H647	0.441	0.351	0.404	0.528	0.337	0.318	0.469	0.274	0.0538	0.0717	0.45	0.305	0.286	0.292	0.306	0.572	0.477	0.368	0.482	0.429
NCI-H1792	0.289	0.272	0.35	0.3	0.246	0.375	0.387	0.34	0.147	0.122	0.475	0.562	0.497	0.372	0.291	0.327	0.261	0.236	0.22	0.246
NCI-H2009	1.14	0.69	0.827	0.908	0.908	0.456	0.159	0.236	0.0505	0.0867	0.352	0.379	0.345	0.364	0.357	0.825	0.816	0.761	0.79	0.558
NCI-H1563	0.616	0.715	0.695	0.648	0.551	0.802	0.646	0.581	0.535	0.586	–	–	–	–	–	0.733	0.664	0.639	0.629	0.657
NCI-H1648	–	–	–	–	–	–	–	–	–	–	0.542	0.475	0.542	0.435	0.46	–	–	–	–	–
IA-LM	0.359	0.286	0.301	0.443	0.36	0.342	0.145	0.0958	0.0574	0.0645	–	–	–	–	–	0.404	0.373	0.353	0.261	0.242
Calu-6	1.03	0.987	0.913	1.07	0.967	1.08	0.707	0.238	0.108	0.135	–	–	–	–	–	0.914	0.906	0.823	0.739	0.486
NCI-H1703	0.247	0.263	0.235	0.262	0.231	0.181	0.162	0.165	0.155	0.174	–	–	–	–	–	0.261	0.229	0.231	0.251	0.245
EBC-1	0.42	0.321	0.41	0.321	0.25	0.488	0.372	0.245	0.11	0.162	–	–	–	–	–	0.392	0.344	0.363	0.365	0.358
NCI-H2228	0.357	0.519	0.494	0.497	0.42	–	0.504	0.101	0.111	0.196	–	–	–	–	–	0.547	0.385	0.446	0.326	0.312
CAL-12T	0.466	0.499	0.357	0.596	0.343	–	0.41	0.299	0.237	0.156	–	–	–	–	–	0.484	0.398	0.345	0.376	0.486
SW 900	–	–	–	–	–	–	–	–	–	–	0.431	0.361	0.42	0.395	0.377	–	–	–	–	–
NCI-H522	–	–	–	–	–	–	–	–	–	–	0.646	0.685	0.614	0.655	0.644	–	–	–	–	–
